Measured values taken from ChEMBL document CHEMBL1201862, “PubChem BioAssay data set” (2004).
The source made the active and inactive calls.

Legend:
HEK293 [1] = assay: cells; conditions: Homo sapiens
HEK293 [2] = assay: cells; conditions: Homo sapiens; remark: listed apart in the source
MCF7 [3] = assay: GM-Tri-DAP induced IL-8 production in MCF-7/NOD1 cells. [Related pubchem assays (depositor defined):AID1266, AID1269, AID1270, AID1271, AID1280, AID1281, AID1282, AID1283, AID1287, AID1289, AID1290, AID1291, AID1292, AID1293, AID1294, AID1295, AID1299, AID1302, AID1364, AID1365, AID1366, AID1367, AID1368, AID1369, AID1371, AID1372, AID1373 …; assay type: functional, cell-based; conditions: Homo sapiens
HEK293 [4] = assay: cells; conditions: Homo sapiens; remark: listed apart in the source
[5] = molecular target: Inhibitor of nuclear factor kappa-B kinase subunit beta (Homo sapiens, UniProt O14920); assay: In Vitro Kinase Assay Using Purified Enzyme IKK-beta. [Related pubchem assays: 1266, 1299, 1269, 1373, 1292, 1290, 1302, 1371, 1283, 1270, 1295, 1271, 1375, 1294, 1287, 1374, 1281, 1293, 1291, 1289, 1280, 465, 1368, 1364, 1372, 1365, 1369, 1370, 1367, 1366 ]
HEK293 [6] = assay: cells; conditions: Homo sapiens; remark: listed apart in the source
HEK293 [7] = assay: cells; conditions: Homo sapiens; remark: listed apart in the source
MCF7 [8] = assay: Cytotoxicity assay in MCF7 cells. [Related pubchem assays (depositor defined):AID1266, AID1269, AID1270, AID1271, AID1280, AID1281, AID1282, AID1283, AID1287, AID1289, AID1290, AID1291, AID1292, AID1293, AID1294, AID1295, AID1299, AID1302, AID1364, AID1365, AID1366, AID1367, AID1368, AID1369, AID1370, AID1371, AID1372, AID1374, AID1375, AID1384 …; assay type: functional, cell-based; conditions: Homo sapiens
Jurkat [9] = assay: IL-2 Production Assay in Jurkat T-cells Stimulated with anti-CD3/anti-CD28 antibodies. [Related pubchem assays: 1299, 1270, 1295, 1375, 1287, 1281, 1293, 1291, 1289, 1280, 465, 1364, 1282, 1372, 1365, 1370, 1367, 1366, 1266, 1269, 1373, 1292, 1290, 1302, 1371, 1283, 1294, 1374, 1368, 1369 ]; assay type: functional, cell-based; conditions: Homo sapiens
HeLa [10] = assay: PMA/Ionomycin induced NF-kB luciferase in HeLa cells. [Related pubchem assays (depositor defined):AID1266, AID1269, AID1270, AID1271, AID1280, AID1281, AID1282, AID1283, AID1287, AID1289, AID1290, AID1291, AID1292, AID1293, AID1294, AID1295, AID1299, AID1302, AID1364, AID1365, AID1366, AID1367, AID1368, AID1369, AID1370, AID1371, AID1372, AID1373 …; assay type: functional, cell-based; conditions: Homo sapiens
HEK293 [11] = assay: PMA/Ionomycin-induced IL-8 production in HEK293- NF-kB-Luc stable cells. [Related pubchem assays: 1299, 1295, 1375, 1287, 1281, 1293, 1291, 1289, 1280, 465, 1364, 1282, 1372, 1365, 1367, 1366, 1266, 1269, 1373, 1292, 1290, 1302, 1371, 1283, 1271, 1294, 1374, 1368, 1369 ]; assay type: functional, cell-based; conditions: Homo sapiens
HEK293 [12] = assay: cells; conditions: Homo sapiens; remark: listed apart in the source
[13] = molecular target: Luciferin 4-monooxygenase (Photinus pyralis, UniProt P08659); assay: In vitro luciferase assay using purified luciferase. [Related pubchem assays: 1299, 1270, 1295, 1375, 1287, 1281, 1293, 1291, 1289, 1280, 465, 1364, 1282, 1372, 1365, 1370, 1367, 1366, 1266, 1373, 1292, 1290, 1302, 1371, 1283, 1271, 1294, 1374, 1368, 1369 ]
HEK293 [14] = assay: cells; conditions: Homo sapiens; remark: listed apart in the source
HEK293 [15] = assay: Cytotoxicity assay in HEK293 cells. [Related pubchem assays (depositor defined):AID1266, AID1269, AID1270, AID1271, AID1280, AID1281, AID1282, AID1283, AID1287, AID1289, AID1290, AID1291, AID1292, AID1293, AID1294, AID1295, AID1299, AID1302, AID1364, AID1365, AID1366, AID1367, AID1369, AID1370, AID1371, AID1372, AID1373, AID1374, AID1375, AID1384 …; assay type: functional, cell-based; conditions: Homo sapiens
[16] = molecular target: Protein kinase C beta type (Homo sapiens, UniProt P05771); assay: In Vitro Kinase Assay Using Purified Enzyme PKC-beta. [Related pubchem assays: 1299, 1270, 1295, 1375, 1287, 1281, 1293, 1291, 1289, 465, 1364, 1282, 1372, 1365, 1370, 1367, 1366, 1266, 1269, 1373, 1292, 1290, 1302, 1371, 1283, 1271, 1294, 1374, 1368, 1369 ]
MCF7 [17] = assay: PMA/Ionomycin induced NF-kB luciferase in MCF7 cells. [Related pubchem assays (depositor defined):AID1266, AID1269, AID1270, AID1271, AID1280, AID1281, AID1282, AID1283, AID1287, AID1289, AID1290, AID1291, AID1292, AID1293, AID1294, AID1295, AID1299, AID1302, AID1364, AID1365, AID1367, AID1368, AID1369, AID1370, AID1371, AID1372, AID1373, AID1374 …; assay type: functional, cell-based; conditions: Homo sapiens
THP-1 = assay: LPS induced NF-kB in THP.1 cells. [Related pubchem assays (depositor defined):AID1266, AID1269, AID1270, AID1271, AID1280, AID1281, AID1282, AID1283, AID1287, AID1289, AID1290, AID1291, AID1292, AID1293, AID1294, AID1295, AID1299, AID1302, AID1364, AID1365, AID1366, AID1367, AID1368, AID1370, AID1371, AID1372, AID1373, AID1374, AID1375, AID1384 …; assay type: functional, cell-based; conditions: Homo sapiens
HEK293 [18] = assay: PMA/Ionomycin induced NF-kB luciferase assay in 293- NF-kB-Luc stable cells. [Related pubchem assays: 1299, 1270, 1295, 1375, 1287, 1281, 1293, 1291, 1289, 1280, 465, 1364, 1282, 1372, 1365, 1370, 1367, 1366, 1269, 1373, 1292, 1290, 1302, 1371, 1283, 1271, 1294, 1374, 1368, 1369 ]; assay type: functional, cell-based; conditions: Homo sapiens
HEK293 [19] = assay: TNF Induced NF-kB Luciferase in 293-NF-kB-Luc Stable Cells. [Related pubchem assays: 1266, 1299, 1269, 1373, 1292, 1290, 1302, 1371, 1283, 1270, 1295, 1271, 1375, 1294, 1374, 1281, 1293, 1291, 1289, 1280, 465, 1368, 1364, 1282, 1372, 1365, 1369, 1370, 1367, 1366 ]; assay type: functional, cell-based; conditions: Homo sapiens
PPC-1 = assay: PMA/Ionomycin induced NF-kB luciferase in PPC-1 cells. [Related pubchem assays (depositor defined):AID1266, AID1269, AID1270, AID1271, AID1280, AID1281, AID1282, AID1283, AID1287, AID1289, AID1290, AID1291, AID1292, AID1293, AID1294, AID1295, AID1299, AID1302, AID1364, AID1365, AID1366, AID1367, AID1368, AID1369, AID1370, AID1371, AID1372, AID1373 …; assay type: functional, cell-based; conditions: Homo sapiens
HeLa [20] = assay: Cytotoxicity Assay in HeLa Cells. [Related pubchem assays: 1299, 1270, 1295, 1375, 1287, 1281, 1293, 1291, 1289, 1280, 465, 1364, 1282, 1372, 1365, 1370, 1367, 1366, 1266, 1269, 1373, 1292, 1290, 1371, 1283, 1271, 1294, 1374, 1368, 1369 ]; assay type: functional, cell-based; conditions: Homo sapiens
[21] = molecular target: Protein kinase C theta type (Homo sapiens, UniProt Q04759); assay: In Vitro Kinase Assay Using Purified Enzyme PKC-theta. [Related pubchem assays: 1299, 1270, 1295, 1375, 1287, 1281, 1293, 1291, 1289, 1280, 465, 1364, 1282, 1372, 1365, 1370, 1367, 1366, 1266, 1269, 1373, 1292, 1290, 1302, 1371, 1271, 1294, 1374, 1368, 1369 ]
HEK293 [22] = assay: cells; conditions: Homo sapiens; remark: listed apart in the source
[23] = Anti-cd3/cd28 induced T cell proliferation of mouse primary lymphocytes. [Related pubchem assays: 1299, 1270, 1295, 1375, 1287, 1281, 1293, 1291, 1289, 1280, 465, 1282, 1372, 1365, 1370, 1367, 1366, 1266, 1269, 1373, 1292, 1290, 1302, 1371, 1283, 1271, 1294, 1374, 1368, 1369 ]; assay type: functional, cell-based
[24] = Anti-IgM induced B cell proliferation of mouse primary lymphocytes. [Related pubchem assays: 1266, 1299, 1269, 1373, 1292, 1290, 1302, 1371, 1283, 1270, 1295, 1271, 1375, 1294, 1287, 1374, 1281, 1293, 1291, 1289, 1280, 465, 1368, 1364, 1282, 1372, 1369, 1370, 1367, 1366 ]; assay type: functional, cell-based
Jurkat [25] = assay: Cytotoxicity assay in Jurkat T cells. [Related pubchem assays (depositor defined):AID1266, AID1269, AID1270, AID1271, AID1280, AID1281, AID1282, AID1283, AID1287, AID1289, AID1290, AID1291, AID1292, AID1293, AID1294, AID1295, AID1299, AID1302, AID1364, AID1365, AID1366, AID1368, AID1369, AID1370, AID1371, AID1372, AID1373, AID1374, AID1375 …; assay type: functional, cell-based; conditions: Homo sapiens
HEK293 [26] = assay: cells; conditions: Homo sapiens; remark: listed apart in the source
HEK293 [27] = assay: cells; conditions: Homo sapiens; remark: listed apart in the source

Measured: EC50

Sequence of Protein kinase C theta type (Q04759 whole entry): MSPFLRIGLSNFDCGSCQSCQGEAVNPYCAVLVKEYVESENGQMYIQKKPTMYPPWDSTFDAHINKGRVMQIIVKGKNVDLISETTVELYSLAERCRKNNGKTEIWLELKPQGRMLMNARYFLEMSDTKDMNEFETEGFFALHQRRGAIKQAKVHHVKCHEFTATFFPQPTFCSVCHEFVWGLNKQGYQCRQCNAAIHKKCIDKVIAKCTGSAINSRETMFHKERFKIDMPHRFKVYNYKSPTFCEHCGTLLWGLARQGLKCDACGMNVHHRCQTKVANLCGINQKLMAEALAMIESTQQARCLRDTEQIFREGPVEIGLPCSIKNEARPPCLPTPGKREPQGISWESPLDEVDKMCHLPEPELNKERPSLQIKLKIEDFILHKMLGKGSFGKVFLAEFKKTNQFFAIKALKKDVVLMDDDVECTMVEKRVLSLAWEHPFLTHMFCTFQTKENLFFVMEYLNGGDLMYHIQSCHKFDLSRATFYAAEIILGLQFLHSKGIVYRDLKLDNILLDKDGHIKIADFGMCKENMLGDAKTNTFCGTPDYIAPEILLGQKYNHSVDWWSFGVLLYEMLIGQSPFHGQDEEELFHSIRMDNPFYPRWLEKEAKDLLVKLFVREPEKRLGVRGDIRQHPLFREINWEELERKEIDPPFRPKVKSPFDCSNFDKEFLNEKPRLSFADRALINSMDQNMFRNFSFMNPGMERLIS
Sequence of Luciferin 4-monooxygenase (P08659 whole entry): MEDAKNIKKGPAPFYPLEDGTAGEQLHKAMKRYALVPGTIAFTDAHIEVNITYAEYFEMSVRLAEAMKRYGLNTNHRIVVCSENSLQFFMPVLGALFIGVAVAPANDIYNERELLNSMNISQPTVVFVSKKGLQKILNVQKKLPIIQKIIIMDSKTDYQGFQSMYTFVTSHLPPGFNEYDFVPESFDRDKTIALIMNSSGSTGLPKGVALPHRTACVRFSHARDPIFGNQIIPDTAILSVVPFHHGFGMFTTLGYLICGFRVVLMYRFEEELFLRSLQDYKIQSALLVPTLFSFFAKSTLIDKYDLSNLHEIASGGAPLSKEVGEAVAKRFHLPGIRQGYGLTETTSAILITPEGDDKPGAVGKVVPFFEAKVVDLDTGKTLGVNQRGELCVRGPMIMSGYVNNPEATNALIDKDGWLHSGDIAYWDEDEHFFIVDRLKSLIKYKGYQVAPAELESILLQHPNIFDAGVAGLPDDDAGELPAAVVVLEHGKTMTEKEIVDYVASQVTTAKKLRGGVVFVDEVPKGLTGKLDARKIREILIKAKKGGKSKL
Sequence of Protein kinase C beta type (P05771 whole entry): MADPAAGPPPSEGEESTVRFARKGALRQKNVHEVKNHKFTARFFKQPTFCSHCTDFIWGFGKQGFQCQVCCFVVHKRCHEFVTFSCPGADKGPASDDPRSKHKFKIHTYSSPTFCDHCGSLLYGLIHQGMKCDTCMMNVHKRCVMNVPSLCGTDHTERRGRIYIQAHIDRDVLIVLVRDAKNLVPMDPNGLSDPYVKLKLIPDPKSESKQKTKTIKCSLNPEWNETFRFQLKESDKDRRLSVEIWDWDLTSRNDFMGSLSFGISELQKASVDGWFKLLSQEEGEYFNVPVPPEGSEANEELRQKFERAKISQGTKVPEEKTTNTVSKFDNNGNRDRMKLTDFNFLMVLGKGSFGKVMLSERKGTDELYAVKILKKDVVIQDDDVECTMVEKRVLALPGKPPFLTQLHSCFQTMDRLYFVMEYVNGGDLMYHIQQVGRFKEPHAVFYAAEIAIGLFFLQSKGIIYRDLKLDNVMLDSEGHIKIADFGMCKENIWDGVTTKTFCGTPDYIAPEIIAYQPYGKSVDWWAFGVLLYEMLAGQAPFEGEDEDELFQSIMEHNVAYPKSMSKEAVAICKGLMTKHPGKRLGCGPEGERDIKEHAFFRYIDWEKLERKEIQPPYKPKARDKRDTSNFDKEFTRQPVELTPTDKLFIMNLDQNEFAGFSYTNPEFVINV
Sequence of Inhibitor of nuclear factor kappa-B kinase subunit beta (O14920 whole entry): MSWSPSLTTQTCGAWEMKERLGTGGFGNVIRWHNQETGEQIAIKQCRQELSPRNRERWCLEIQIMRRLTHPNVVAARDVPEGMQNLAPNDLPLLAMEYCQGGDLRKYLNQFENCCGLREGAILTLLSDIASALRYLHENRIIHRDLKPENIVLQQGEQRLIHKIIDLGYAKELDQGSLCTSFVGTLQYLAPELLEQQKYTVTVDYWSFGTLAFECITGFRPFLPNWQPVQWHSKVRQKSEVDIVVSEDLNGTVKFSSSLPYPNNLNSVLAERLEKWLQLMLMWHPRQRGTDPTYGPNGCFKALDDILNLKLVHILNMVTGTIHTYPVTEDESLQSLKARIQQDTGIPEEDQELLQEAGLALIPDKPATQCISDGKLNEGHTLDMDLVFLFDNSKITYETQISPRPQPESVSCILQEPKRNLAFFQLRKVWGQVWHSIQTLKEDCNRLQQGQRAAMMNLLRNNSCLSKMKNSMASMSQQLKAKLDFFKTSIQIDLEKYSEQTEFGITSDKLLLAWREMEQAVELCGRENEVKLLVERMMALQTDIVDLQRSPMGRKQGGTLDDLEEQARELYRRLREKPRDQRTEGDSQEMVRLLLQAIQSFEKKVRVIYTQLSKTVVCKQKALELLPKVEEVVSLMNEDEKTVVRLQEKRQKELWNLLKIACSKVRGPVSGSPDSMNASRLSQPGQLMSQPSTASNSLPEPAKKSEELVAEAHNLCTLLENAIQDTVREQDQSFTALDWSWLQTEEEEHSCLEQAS

Cc1cc2nc(NCCCO)n(CC(=O)c3cc(C(C)(C)C)c(O)c(C(C)(C)C)c3)c2cc1C
active: HEK293 [6] 0.23 µM | Jurkat [9] 2.57 µM | HEK293 [11] 0.0604 µM | HEK293 [12] 0.672 µM | HEK293 [18] 0.129 µM | [24] 2.81 µM
> 8 µM (not active): [13] | HEK293 [19]
inactive: MCF7 [3] > 8 µM | HEK293 [7] > 4 µM | MCF7 [8] > 8 µM | HeLa [10] > 4 µM | HEK293 [15] > 8 µM | MCF7 [17] > 4 µM | THP-1 5.74 µM | PPC-1 > 4 µM | Jurkat [25] > 8 µM | HEK293 [26] > 4 µM
> 4 µM (not active): all other assays above
